Patent publication US9714234B2, “Carbazole carboxamide compounds” (Bristol-Myers Squibb Company, priority 2013, dated 2017)

Experiments:
Jak2 tyrosine kinase = Jak2 tyrosine kinase (Homo sapiens (Human), UniProt O60674); experiment: Jak2 Tyrosine Kinase Assay; type: biochemical; details: for IC50: Jak2 1 nM, ATP 30 μM; for Ratio of Jak2/Btk IC50 values: selectivity for Btk over Jak2, larger value = more selective for Btk
[1] = system: CD69 expression on B cells in human whole blood; experiment: Whole Blood Assays of BCR-Stimulated CD69 Expression on B Cells; type: cell-based; details: anti-human IgM + IL-4 stimulation, 18 h at 37° C.
human recombinant Btk = human recombinant Btk (Homo sapiens (Human), UniProt Q06187); experiment: Human Recombinant Btk Enzyme Assay; type: biochemical; details: human recombinant Btk 1 nM, ATP 20 μM
human recombinant Btk, sequence (Q06187 whole entry): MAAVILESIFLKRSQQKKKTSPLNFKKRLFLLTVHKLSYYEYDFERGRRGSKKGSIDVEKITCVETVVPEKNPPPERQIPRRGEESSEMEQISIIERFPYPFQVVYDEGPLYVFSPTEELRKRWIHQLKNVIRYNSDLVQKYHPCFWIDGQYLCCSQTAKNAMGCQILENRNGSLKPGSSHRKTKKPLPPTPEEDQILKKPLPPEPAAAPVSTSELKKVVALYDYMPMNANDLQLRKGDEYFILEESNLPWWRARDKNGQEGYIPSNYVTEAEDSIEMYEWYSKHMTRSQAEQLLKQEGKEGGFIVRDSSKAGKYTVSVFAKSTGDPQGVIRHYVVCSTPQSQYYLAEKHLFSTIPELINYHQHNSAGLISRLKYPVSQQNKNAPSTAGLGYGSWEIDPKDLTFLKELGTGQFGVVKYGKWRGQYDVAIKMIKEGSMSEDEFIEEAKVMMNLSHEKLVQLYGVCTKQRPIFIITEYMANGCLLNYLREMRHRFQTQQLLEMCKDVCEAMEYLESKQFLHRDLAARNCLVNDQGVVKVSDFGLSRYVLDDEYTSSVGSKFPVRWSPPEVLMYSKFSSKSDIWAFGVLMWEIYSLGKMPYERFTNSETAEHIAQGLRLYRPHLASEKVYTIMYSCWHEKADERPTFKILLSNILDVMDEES

Jak2 tyrosine kinase, sequence (O60674 whole entry): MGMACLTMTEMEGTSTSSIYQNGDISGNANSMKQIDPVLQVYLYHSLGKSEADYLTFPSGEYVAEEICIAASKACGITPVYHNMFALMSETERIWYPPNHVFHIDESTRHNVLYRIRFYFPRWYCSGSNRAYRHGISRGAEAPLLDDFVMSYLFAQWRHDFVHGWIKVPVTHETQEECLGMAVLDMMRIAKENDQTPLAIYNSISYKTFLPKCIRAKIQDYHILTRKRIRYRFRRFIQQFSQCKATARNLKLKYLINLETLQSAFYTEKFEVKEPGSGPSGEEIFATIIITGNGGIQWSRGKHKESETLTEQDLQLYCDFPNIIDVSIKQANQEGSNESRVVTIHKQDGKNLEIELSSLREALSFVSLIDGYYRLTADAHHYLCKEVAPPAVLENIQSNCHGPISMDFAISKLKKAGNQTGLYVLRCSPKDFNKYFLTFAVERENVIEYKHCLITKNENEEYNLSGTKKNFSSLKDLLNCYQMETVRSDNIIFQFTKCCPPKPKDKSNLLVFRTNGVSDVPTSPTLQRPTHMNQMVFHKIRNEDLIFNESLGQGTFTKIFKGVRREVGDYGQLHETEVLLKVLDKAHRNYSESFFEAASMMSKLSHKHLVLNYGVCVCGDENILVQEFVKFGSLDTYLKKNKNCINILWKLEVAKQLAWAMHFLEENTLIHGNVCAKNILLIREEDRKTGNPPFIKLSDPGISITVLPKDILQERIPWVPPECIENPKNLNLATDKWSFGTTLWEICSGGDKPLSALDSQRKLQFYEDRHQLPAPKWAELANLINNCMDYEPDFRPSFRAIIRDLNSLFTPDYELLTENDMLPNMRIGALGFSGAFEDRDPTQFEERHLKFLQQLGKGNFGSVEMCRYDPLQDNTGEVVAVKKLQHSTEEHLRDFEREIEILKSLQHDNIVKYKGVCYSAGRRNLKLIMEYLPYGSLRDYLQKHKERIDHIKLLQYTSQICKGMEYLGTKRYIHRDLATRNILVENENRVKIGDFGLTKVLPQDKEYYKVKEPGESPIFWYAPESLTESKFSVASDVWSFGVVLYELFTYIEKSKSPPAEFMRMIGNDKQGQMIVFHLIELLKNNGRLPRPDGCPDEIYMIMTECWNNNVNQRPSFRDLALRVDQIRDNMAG

Molecule | IC50 (Jak2 tyrosine kinase) [µM] | Ratio of Jak2/Btk IC50 values (Jak2 tyrosine kinase) | IC50 ([1]; B-cell) [µM] | IC50 (human recombinant Btk) [µM] | IC50 [1] [µM] | IC50 ([1]; Homo sapiens, B-cell, 18 h) [µM]
Cc1c(-c2ccc(C(N)=O)c3[nH]c4cc(C(C)(C)O)ccc4c23)cccc1-n1c(=O)c2cc(F)ccc2n(C)c1=O [Example 8, 4-(3-(6-Fluoro-1-methyl-2,4-dioxo-1,2-dihydroquinazolin-3(4H)-yl)-2-methylphenyl)-7-(2-hydroxypropan-2-yl)-9H-carbazole-1-carboxamide] | 2.2 | 380 | 0.16 | 0.0058 | – | –
Cc1c(-c2ccc(C(N)=O)c3[nH]c4cc(C(C)(C)O)ccc4c23)cccc1-n1c(=O)cc2c(F)cccn2c1=O [Example 23, 4-(3-(5-Fluoro-1,3-dioxo-1H-pyrido[1,2-c]pyrimidin-2(3H)-yl)-2-methylphenyl)-7-(2-hydroxypropan-2-yl)-9H-carbazole-1-carboxamide] | 1 | 830 | – | 0.0012 | 0.079 | –
CC(=O)NCc1ccc2c(c1)[nH]c1c(C(N)=O)ccc(-c3cccc(-n4c(=O)cc5c(F)cccn5c4=O)c3C)c12 [Example 30, 7-(acetamidomethyl)-4-(3-(5-fluoro-1,3-dioxo-1H-pyrido[1,2-c]pyrimidin-2(3H)-yl)-2-methylphenyl)-9H-carbazole-1-carboxamide] | 0.43 | 360 | 0.13 | 0.0012 | – | –
Cc1c(-c2ccc(C(N)=O)c3[nH]c4cc(C(C)(C)O)ccc4c23)cccc1-n1c(=O)cc2c(Cl)cccn2c1=O [Example 13, 4-(3-(5-Chloro-1,3-dioxo-1H-pyrido[1,2-c]pyrimidin-2(3H)-yl)-2-methylphenyl)-7-(2-hydroxypropan-2-yl)-9H-carbazole-1-carboxamide] | 1.3 | 1400 | – | 0.00094 | 0.12 | –
Cc1c(-c2ccc(C(N)=O)c3[nH]c4cc(C(C)(C)O)ccc4c23)cccc1-n1c(=O)cc2c(F)cccn2c1=O [Example 21, 4-(3-(5-Fluoro-1,3-dioxo-1H-pyrido[1,2-c]pyrimidin-2(3H)-yl)-2-methylphenyl)-7-(2-hydroxypropan-2-yl)-9H-carbazole-1-carboxamide] | 0.96 | 1000 | – | 0.00093 | – | 0.075
Cc1c(-c2ccc(C(N)=O)c3[nH]c4c(F)c(C(C)(C)O)ccc4c23)cccc1-n1c(=O)c2cccc(F)c2n(C)c1=O [Example 33, 8-fluoro-4-(3-(8-fluoro-1-methyl-2,4-dioxo-1,2-dihydroquinazolin-3(4H)-yl)-2-methylphenyl)-7-(2-hydroxypropan-2-yl)-9H-carbazole-1-carboxamide] | 0.226 | 540 | 0.25 | 0.0004 | – | –
Cc1c(-c2ccc(C(N)=O)c3[nH]c4cc(C(C)(C)O)ccc4c23)cccc1-n1c(=O)[nH]c2c(F)cccc2c1=O (single isomer, unassigned) [Example 2, 4-(3-(8-Fluoro-2,4-dioxo-1,2-dihydroquinazolin-3(4H)-yl)-2-methylphenyl)-7-(2-hydroxypropan-2-yl)-9H-carbazole-1-carboxamide] | 0.85 | 350 | – | 0.0024 | 0.2 | –
Cc1c(-c2ccc(C(N)=O)c3[nH]c4cc(C(C)(C)O)ccc4c23)cccc1-n1c(=O)[nH]c2c(F)cccc2c1=O (single isomer, unassigned) [Example 1, 4-(3-(8-Fluoro-2,4-dioxo-1,2-dihydroquinazolin-3(4H)-yl)-2-methylphenyl)-7-(2-hydroxypropan-2-yl)-9H-carbazole-1-carboxamide] | 1.2 | 800 | – | 0.0015 | – | 0.14
COc1ccn2c(=O)n(-c3cccc(-c4ccc(C(N)=O)c5[nH]c6cc(C(C)(C)O)ccc6c45)c3C)c(=O)cc2c1 [Example 11, 7-(2-Hydroxypropan-2-yl)-4-(3-(6-methoxy-1,3-dioxo-1H-pyrido[1,2-c]pyrimidin-2(3H)-yl)-2-methylphenyl)-9H-carbazole-1-carboxamide] | 1 | 1600 | 0.14 | 0.00063 | – | –
Cc1c(-c2ccc(C(N)=O)c3[nH]c4cc(CO)ccc4c23)cccc1-n1c(=O)cc2c(F)cccn2c1=O [Example 28, 4-(3-(5-fluoro-1,3-dioxo-1H-pyrido[1,2-c]pyrimidin-2(3H)-yl)-2-methylphenyl)-7-(hydroxymethyl)-9H-carbazole-1-carboxamide] | 0.8 | 530 | 0.087 | 0.0015 | – | –
COc1cccc2c(=O)n(-c3cccc(-c4ccc(C(N)=O)c5[nH]c6cc(C(C)(C)O)ccc6c45)c3C)c(=O)n(C)c12 [Example 7, 7-(2-Hydroxypropan-2-yl)-4-(3-(8-methoxy-1-methyl-2,4-dioxo-1,2-dihydroquinazolin-3(4H)-yl)-2-methylphenyl)-9H-carbazole-1-carboxamide] | 1.3 | 760 | 0.22 | 0.0017 | – | –
Cn1c(=O)n(-c2cccc(-c3ccc(C(N)=O)c4[nH]c5cc(C(C)(C)O)ccc5c34)c2Cl)c(=O)c2ccccc21 [Example 6, 4-(2-Chloro-3-(1-methyl-2,4-dioxo-1,2-dihydroquinazolin-3(4H)-yl)phenyl)-7-(2-hydroxypropan-2-yl)-9H-carbazole-1-carboxamide] | 1.8 | 340 | 0.15 | 0.0053 | – | –
Cc1c(-c2ccc(C(N)=O)c3[nH]c4cc(C(C)(C)O)cc(C)c4c23)cccc1-n1c(=O)c2cccc(F)c2n(C)c1=O (single isomer, unassigned) [Example 25] | 4.6 | 6600 | 0.069 | 0.0007 | – | –
COCc1ccc2c(c1)[nH]c1c(C(N)=O)ccc(-c3cccc(-n4c(=O)cc5c(Cl)cccn5c4=O)c3C)c12 [Example 17, 4-(3-(5-Chloro-1,3-dioxo-1H-pyrido[1,2-c]pyrimidin-2(3H)-yl)-2-methylphenyl)-7-(methoxymethyl)-9H-carbazole-1-carboxamide] | 1.9 | 1100 | 0.11 | 0.0017 | – | –
Cc1c(-c2ccc(C(N)=O)c3[nH]c4c(C)c(C(C)(C)O)ccc4c23)cccc1-n1c(=O)c2cccc(F)c2n(C)c1=O (atropisomer, axis not shown) [Example 26, 4-(3-(S)-(8-Fluoro-1-methyl-2,4-dioxo-1,2-dihydroquinazolin-3(4H)-yl)-2-methylphenyl)-7-(2-hydroxypropan-2-yl)-8-methyl-9H-carbazole-1-carboxamide] | > 2 | >2400 | 0.2 | 0.00084 | – | –
Cn1c(=O)n(-c2cccc(-c3ccc(C(N)=O)c4[nH]c5cc(C(C)(C)O)ccc5c34)c2Cl)c(=O)c2cccc(F)c21 [Example 5, 4-(2-Chloro-3-(8-fluoro-1-methyl-2,4-dioxo-1,2-dihydroquinazolin-3(4H)-yl)phenyl)-7-(2-hydroxypropan-2-yl)-9H-carbazole-1-carboxamide] | 1.2 | 1300 | 0.18 | 0.0009 | – | –
Cc1c(-c2ccc(C(N)=O)c3[nH]c4cc(C(C)(C)O)ccc4c23)cccc1-n1c(=O)ccn(-c2ccc(F)cc2)c1=O [Example 9, 4-(3-(3-(4-Fluorophenyl)-2,6-dioxo-2,3-dihydropyrimidin-1(6H)-yl)-2-methylphenyl)-7-(2-hydroxypropan-2-yl)-9H-carbazole-1-carboxamide] | 1 | 450 | 0.21 | 0.0022 | – | –
Cc1c(-c2ccc(C(N)=O)c3[nH]c4cc(C(C)(C)O)ccc4c23)cccc1-n1c(=O)cc2sccn2c1=O [Example 20, 4-(3-(5,7-Dioxo-5H-thiazolo[3,2-c]pyrimidin-6(7H)-yl)-2-methylphenyl)-7-(2-hydroxypropan-2-yl)-9H-carbazole-1-carboxamide] | 0.57 | 360 | 0.13 | 0.0016 | – | –
COCc1ccc2c(c1)[nH]c1c(C(N)=O)ccc(-c3cccc(-n4c(=O)cc5c(F)cccn5c4=O)c3C)c12 [Example 18, 4-(3-(5-Fluoro-1,3-dioxo-1H-pyrido[1,2-c]pyrimidin-2(3H)-yl)-2-methylphenyl)-7-(methoxymethyl)-9H-carbazole-1-carboxamide] | 0.74 | 320 | 0.13 | 0.0023 | – | –
Cc1c(-c2ccc(C(N)=O)c3[nH]c4cc(NC(=O)C(C)(C)C)ccc4c23)cccc1-n1c(=O)cc2c(Cl)cccn2c1=O [Example 16, 4-(3-(5-Chloro-1,3-dioxo-1H-pyrido[1,2-c]pyrimidin-2(3H)-yl)-2-methylphenyl)-7-pivalamido-9H-carbazole-1-carboxamide] | 2.2 | 1000 | 0.22 | 0.0021 | – | –
4-(3-(S)-(8-Fluoro-1-methyl-2,4-dioxo-1,2-dihydroquinazolin-3(4H)-yl)-2-methylphenyl)-7-(2-hydroxypropan-2-yl)-5-methyl-9H-carbazole-1-carboxamide [Example 24] | > 2 | >3400 | – | 0.00059 | 0.16 | –
Cc1c(-c2ccc(C(N)=O)c3[nH]c4cc(C(C)(C)O)ccc4c23)cccc1-n1c(=O)c(F)c2ccccn2c1=O [Example 19, 4-(3-(4-Fluoro-1,3-dioxo-1H-pyrido[1,2-c]pyrimidin-2(3H)-yl)-2-methylphenyl)-7-(2-hydroxypropan-2-yl)-9H-carbazole-1-carboxamide] | 1.9 | 1200 | 0.14 | 0.0016 | – | –
